Results on one substance are retold here after patent US20250099415A1, “Methods for Inhibiting the Progression of Oxidative Retinal Disease” (BioJiva LLC, priority 2021, published 2025).

In the assay the test system is macular degeneration patients. Description: Clinical study of geographic atrophy progression in macular degeneration patients, treated versus placebo cohort. Type of assay: in vivo, human. As for the experimental part:
This example illustrates the reduction in the rate of macular degeneration progression in a cohort of patients treated with deuterated docosahexaenoic acid ethyl ester similar to that of Example 1, as compared to a cohort of placebo patients. Specifically, the treated cohort […]. The patients are maintained on this dosing regimen throughout the clinical study. Periodic measurements of further geographic atrophy development are obtained.
Dosing is continued for 6 or 12, or 18 or 24 months. At that time, the average extent of geographic atrophy progression is measured for each cohort. The efficacy of the treatment protocol is evaluated by comparing the extent of geographic atrophy progression in a treated population against a placebo population. […]
Alternatively, the rate of disease progression for an individual patient can be assessed by the following: • a) determine the rate of disease progression for said individual patient by measuring the extent of geographic atrophy in the patient's retina at the start of therapy and at 6, 12, 18 or 24 months post start of therapy and assigning a […] value “D” to that differential; • b) determine the average rate of disease progression for a cohort of patients treated with placebo (safflower oil) by measuring the extent of geographic atrophy in each of the patient's retina at the start of therapy and at 6, 12, 18 or 24 months post start of therapy, determining the difference between the extent of atrophy at the start of therapy and at the later time point, and then obtaining an average for that differential and assigning a second value designated as “E” to that average differential; • c) calculating the difference between D and E and assign “F” to that value (e.g, E−D=F); • d) assign a positive value to “F” if E is greater than D; • e) assign a negative value to “F” if E is less than D; and • f) divide F by E and multiply by 100 [(F/E)×100]. […]

Setting [1] is: 6, 12, 18 or 24 months post start of therapy, placebo safflower oil.

For “Deuterated Docosahexaenoic Acid Ethyl Ester”, for the setting “250 mg/day, dosing for 6 or 12, or 18 or 24 months, versus safflower oil placebo cohort”, the “reduction in the rate of disease progression (extent of geographic atrophy progression, treated population against placebo population)” value is on record as “statistically significant reduction in the rate of disease progression”. Further, under setting [1], the “percent reduction in geographic atrophy, individual treated patient vs placebo cohort [(F/E)×100]” value is “positive percent reduction in geographic atrophy that is statistically significant” and the “percent reduction in geographic atrophy, treated cohort vs placebo cohort [(C/B)×100]” value is on record as “positive percent reduction in geographic atrophy that is statistically significant”.
